Drawing on US10040781B2, “Tank-binding kinase inhibitor compounds” (Gilead Sciences, Inc., priority 2014, dated 2018), this text covers IC50 for 15 compounds.

Read-outs that look alike come from different tables or passages of the source. Some results are limits rather than exact numbers.

The target in one experiment is IKKε (Homo sapiens (Human), UniProt Q14164). The experiment is described as follows: IKKε TR-FRET enzymatic assay. It is filed as biochemical. Particulars: read-out: IKKe IC50.
In a further experiment the target is TBK1 (Homo sapiens (Human), UniProt Q9UHD2). Description: TBK1 TR-FRET enzymatic assay.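 Note: phosphorylation of a biotinylated Ser/Thr peptide by purified full-length recombinant TBK1, read by TR-FRET after 240 min at 25 °C, IC50 is the geometric mean of at least four runs.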 On the technique in general: Time-resolved FRET reads energy transfer from a long-lived donor to a nearby acceptor.
The target in a further experiment is hJAK2 (Homo sapiens (Human), UniProt O60674). The experiment is described as follows: hJAK2 LANCE TR-FRET enzymatic assay. The format is biochemical. Particulars: read-out: JAK2 IC50.
[1] abbreviates: TR-FRET, 2×Km ATP, geometric mean of minimum four determinations.

hJAK2, sequence (O60674 whole entry): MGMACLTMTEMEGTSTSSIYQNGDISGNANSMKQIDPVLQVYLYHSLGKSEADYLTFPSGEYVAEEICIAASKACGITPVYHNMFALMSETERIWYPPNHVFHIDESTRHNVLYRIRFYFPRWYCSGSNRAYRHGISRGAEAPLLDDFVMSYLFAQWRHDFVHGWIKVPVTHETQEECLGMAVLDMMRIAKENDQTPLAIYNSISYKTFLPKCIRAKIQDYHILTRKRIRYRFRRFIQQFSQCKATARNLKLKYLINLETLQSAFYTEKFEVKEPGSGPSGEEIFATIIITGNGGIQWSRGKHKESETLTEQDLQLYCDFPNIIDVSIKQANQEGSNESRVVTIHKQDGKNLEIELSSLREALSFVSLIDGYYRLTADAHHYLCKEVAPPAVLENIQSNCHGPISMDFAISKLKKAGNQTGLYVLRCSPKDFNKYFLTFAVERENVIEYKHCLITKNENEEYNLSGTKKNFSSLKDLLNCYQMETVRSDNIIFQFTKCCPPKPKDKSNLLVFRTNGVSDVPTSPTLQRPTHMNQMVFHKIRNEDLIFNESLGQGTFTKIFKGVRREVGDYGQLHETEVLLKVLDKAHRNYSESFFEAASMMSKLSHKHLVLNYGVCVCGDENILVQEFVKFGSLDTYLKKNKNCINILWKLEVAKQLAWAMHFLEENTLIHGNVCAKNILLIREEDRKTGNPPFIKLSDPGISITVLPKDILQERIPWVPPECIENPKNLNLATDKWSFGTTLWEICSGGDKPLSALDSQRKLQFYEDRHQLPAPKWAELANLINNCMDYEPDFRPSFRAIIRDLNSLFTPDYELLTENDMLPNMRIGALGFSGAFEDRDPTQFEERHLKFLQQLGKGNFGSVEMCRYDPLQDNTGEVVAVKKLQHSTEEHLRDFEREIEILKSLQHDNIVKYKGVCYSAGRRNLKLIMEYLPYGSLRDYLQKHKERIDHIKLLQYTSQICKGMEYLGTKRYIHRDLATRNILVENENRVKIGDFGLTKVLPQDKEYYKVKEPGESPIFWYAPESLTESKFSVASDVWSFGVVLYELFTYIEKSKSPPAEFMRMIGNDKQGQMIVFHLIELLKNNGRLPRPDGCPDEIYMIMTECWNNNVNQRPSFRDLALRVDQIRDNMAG
IKKε, sequence (Q14164 whole entry): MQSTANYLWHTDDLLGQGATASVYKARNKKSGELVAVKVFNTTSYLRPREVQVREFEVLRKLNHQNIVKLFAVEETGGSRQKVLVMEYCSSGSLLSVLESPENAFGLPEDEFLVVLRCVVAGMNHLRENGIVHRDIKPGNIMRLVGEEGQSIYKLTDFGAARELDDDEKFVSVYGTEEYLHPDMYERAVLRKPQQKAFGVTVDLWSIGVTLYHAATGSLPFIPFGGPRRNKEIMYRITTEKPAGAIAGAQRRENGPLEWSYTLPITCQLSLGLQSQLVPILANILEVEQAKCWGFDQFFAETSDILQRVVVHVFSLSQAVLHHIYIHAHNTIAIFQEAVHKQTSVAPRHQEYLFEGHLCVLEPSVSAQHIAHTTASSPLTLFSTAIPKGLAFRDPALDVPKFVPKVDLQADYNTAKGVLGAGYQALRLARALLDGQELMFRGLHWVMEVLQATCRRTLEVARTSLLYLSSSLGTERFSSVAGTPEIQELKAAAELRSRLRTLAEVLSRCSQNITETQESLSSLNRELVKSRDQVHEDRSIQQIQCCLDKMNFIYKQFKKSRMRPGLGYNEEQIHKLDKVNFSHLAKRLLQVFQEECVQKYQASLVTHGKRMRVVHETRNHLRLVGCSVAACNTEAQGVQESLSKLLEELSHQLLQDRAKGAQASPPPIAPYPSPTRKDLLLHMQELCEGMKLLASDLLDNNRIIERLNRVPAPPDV
TBK1, sequence (Q9UHD2 whole entry): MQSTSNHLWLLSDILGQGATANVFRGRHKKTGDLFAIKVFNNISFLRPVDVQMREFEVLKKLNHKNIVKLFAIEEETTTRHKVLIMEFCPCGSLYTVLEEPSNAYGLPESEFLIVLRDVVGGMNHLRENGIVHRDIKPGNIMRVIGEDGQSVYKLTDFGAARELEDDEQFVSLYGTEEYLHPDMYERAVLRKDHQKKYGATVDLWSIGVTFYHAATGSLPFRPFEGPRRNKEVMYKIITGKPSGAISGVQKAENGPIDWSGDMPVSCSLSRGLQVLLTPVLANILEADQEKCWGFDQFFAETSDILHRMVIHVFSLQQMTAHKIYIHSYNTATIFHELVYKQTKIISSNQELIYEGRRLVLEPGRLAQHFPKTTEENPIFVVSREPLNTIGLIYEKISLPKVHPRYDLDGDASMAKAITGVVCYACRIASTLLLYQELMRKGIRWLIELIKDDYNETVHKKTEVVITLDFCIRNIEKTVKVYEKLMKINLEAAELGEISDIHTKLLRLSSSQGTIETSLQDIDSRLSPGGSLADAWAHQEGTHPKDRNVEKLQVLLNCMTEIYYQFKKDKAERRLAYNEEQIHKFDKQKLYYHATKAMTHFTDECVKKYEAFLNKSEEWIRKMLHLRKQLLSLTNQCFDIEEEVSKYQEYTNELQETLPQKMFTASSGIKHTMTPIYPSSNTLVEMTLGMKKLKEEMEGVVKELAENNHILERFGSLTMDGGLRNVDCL

Regarding `CC(=O)N1CC[C@H](Oc2ccc(-c3ncnc(Nc4ccc(N5CCN(C6COC6)CC5)cc4)n3)cc2C#N)[C@H](F)C1` [Example 289, 2-(((3R,4S)-1-acetyl-3-fluoropiperidin-4-yl)oxy)-5-(4-((4-(4-(oxetan-3-yl)piperazin-1-yl)phenyl)amino)-1,3,5-triazin-2-yl)benzonitrile], the IC50 (usually the point on the concentration scale where inhibition reaches its midpoint) on IKKε amounted to 5 nM; at TBK1, 4 nM; at hJAK2, 444 nM.
Taken in the same sequence, the figures for `N#Cc1cc(-c2ncnc(Nc3ccc(N4CCN(C5COC5)CC4)cc3)n2)ccc1O[C@H]1CCCN(C(=O)CO)C1` [Example 127, (S)-2-((1-(2-hydroxyacetyl)piperidin-3-yl)oxy)-5-(4-((4-(4-(oxetan-3-yl)piperazin-1-yl)phenyl)amino)-1,3,5-triazin-2-yl)benzonitrile] were 562 nM, 180 nM and 394 nM.
In the case of `N#Cc1cc(Nc2ncnc(-c3ccc(OC4CCOCC4)c(C#N)c3)n2)ccc1OC1CCOCC1` [Example 36, 5-((4-(3-cyano-4-((tetrahydro-2H-pyran-4-yl)oxy)phenyl)-1,3,5-triazin-2-yl)amino)-2-((tetrahydro-2H-pyran-4-yl)oxy)benzonitrile], the values for the half-inhibitory concentration (IC50) on IKKε, against TBK1 and at hJAK2 were 12 nM, 10 nM and greater than 1000 nM, respectively.
Regarding `C[C@H](O)C(=O)N1CC[C@H](Oc2ccc(-c3ncnc(Nc4cnc5c(c4)OCCN5)n3)cc2C#N)[C@H](F)C1` [Example 516, 5-(4-((3,4-dihydro-2H-pyrido[3,2-b][1,4]oxazin-7-yl)amino)-1,3,5-triazin-2-yl)-2-(((3R,4S)-3-fluoro-1-((S)-2-hydroxypropanoyl)piperidin-4-yl)oxy)benzonitrile], the 50% inhibitory concentration (IC50) is 10 nM on IKKε (setting [1]), 6 nM against TBK1 and no less than 1000 nM on hJAK2.
Take `N#Cc1cc(-c2ncnc(Nc3ccc(N4CCN(C5COC5)CC4)cc3)n2)ccc1N1CC[C@@H](F)C1` [Example 200, (R)-2-(3-fluoropyrrolidin-1-yl)-5-(4-((4-(4-(oxetan-3-yl)piperazin-1-yl)phenyl)amino)-1,3,5-triazin-2-yl)benzonitrile]: the results for the IC50 on IKKε, against TBK1 and at hJAK2 were 7 nM, 3 nM and 109 nM, respectively.
Take `C[C@H](O)C(=O)N1CC[C@H](Oc2ccc(-c3ncnc(Nc4cnn(C(C)(C)C)c4)n3)cc2C#N)[C@H](F)C1` [Example 294, 5-(4-((1-(tert-butyl)-1H-pyrazol-4-yl)amino)-1,3,5-triazin-2-yl)-2-(((3R,4S)-3-fluoro-1-((S)-2-hydroxypropanoyl)piperidin-4-yl)oxy)benzonitrile]: the results for the IC50 at IKKε, against TBK1 and at hJAK2 were 5 nM, 4 nM and 228 nM, respectively.
Regarding `N#Cc1cc(-c2ncnc(Nc3ccc(N4CCN(C5COC5)CC4)cc3)n2)ccc1O[C@H]1CCN(C(=O)C2CCNC2=O)C[C@H]1F` (stereo partly drawn) [Example 551, 2-(((3R,4S)-3-fluoro-1-(2-oxopyrrolidine-3-carbonyl)piperidin-4-yl)oxy)-5-(4-((4-(4-(oxetan-3-yl)piperazin-1-yl)phenyl)amino)-1,3,5-triazin-2-yl)benzonitrile], the IC50 amounted to 92 nM at IKKε (setting [1]), 16 nM on TBK1 and 799 nM at hJAK2.
The corresponding values for `COCC(=O)N1CC[C@H](Oc2ccc(-c3ncnc(Nc4ccc(N5CCN(C6COC6)CC5)c(F)c4)n3)cc2C#N)[C@H](F)C1` [Example 402, 2-(((3R,4S)-3-fluoro-1-(2-methoxyacetyl)piperidin-4-yl)oxy)-5-(4-((3-fluoro-4-(4-(oxetan-3-yl)piperazin-1-yl)phenyl)amino)-1,3,5-triazin-2-yl)benzonitrile] are 3 nM, 3 nM and no less than 1000 nM.
Consider `N#Cc1cc(-c2ncnc(Nc3ccc(N4CCOC[C@H]4CO)cc3)n2)ccc1O[C@H]1CCN(C(=O)CO)C[C@H]1F` [Example 384, 2-(((3R,4S)-3-fluoro-1-(2-hydroxyacetyl)piperidin-4-yl)oxy)-5-(4-((4-((R)-3-(hydroxymethyl)morpholino)phenyl)amino)-1,3,5-triazin-2-yl)benzonitrile], for which the IC50 turned out to be 1 nM on IKKε, 2 nM against TBK1 and 189 nM on hJAK2.
Consider `C[C@H](O)C(=O)N1CC[C@H](Oc2ccc(-c3ncnc(Nc4cccc(CN5CCOCC5)c4)n3)cc2C#N)[C@H](F)C1` [Example 539, 2-(((3R,4S)-3-fluoro-1-((S)-2-hydroxypropanoyl)piperidin-4-yl)oxy)-5-(4-((3-(morpholinomethyl)phenyl)amino)-1,3,5-triazin-2-yl)benzonitrile], for which the IC50 on IKKε (setting [1]) was 2 nM; against TBK1, 3 nM; at hJAK2, 519 nM.
`COc1cc(Nc2ncnc(-c3ccc(O[C@H]4CCN(C(=O)CCO)C[C@H]4F)c(C#N)c3)n2)ccc1N1CCN(C2COC2)CC1` [Example 562, 2-(((3R,4S)-3-fluoro-1-(3-hydroxypropanoyl)piperidin-4-yl)oxy)-5-(4-((3-methoxy-4-(4-(oxetan-3-yl)piperazin-1-yl)phenyl)amino)-1,3,5-triazin-2-yl)benzonitrile]: the half-inhibitory concentration (IC50) at IKKε (setting [1]) is 6 nM; at TBK1, 3 nM; on hJAK2 it was 110 nM.
With `CC1(O)CCN(c2ccc(Nc3ncnc(-c4ccc(OC5CCOCC5)c(C#N)c4)n3)cc2)C1` (stereo not drawn) [Example 108, 5-(4-((4-(3-hydroxy-3-methylpyrrolidin-1-yl)phenyl)amino)-1,3,5-triazin-2-yl)-2-((tetrahydro-2H-pyran-4-yl)oxy)benzonitrile], the IC50 on IKKε was 6 nM; at TBK1 it was 3 nM; at hJAK2, greater than 1000 nM.
Taken in the same sequence, the figures for `C[C@H](O)C(=O)N1CC[C@H](Oc2ccc(-c3ncnc(Nc4ccc(N5CCN(C6(C)COC6)CC5)cc4)n3)cc2C#N)[C@H](F)C1` [Example 312, 2-(((3R,4S)-3-fluoro-1-((S)-2-hydroxypropanoyl)piperidin-4-yl)oxy)-5-(4-((4-(4-(3-methyloxetan-3-yl)piperazin-1-yl)phenyl)amino)-1,3,5-triazin-2-yl)benzonitrile] were 3 nM, 3 nM and 636 nM.
On to `COc1cc(Nc2ncnc(-c3ccc(OC4CCOCC4)c(C#N)c3)n2)ccc1OC(F)F` [Example 31, 5-(4-((4-(difluoromethoxy)-3-methoxyphenyl)amino)-1,3,5-triazin-2-yl)-2-((tetrahydro-2H-pyran-4-yl)oxy)benzonitrile], for which the half-maximal inhibitory concentration (IC50) on IKKε was 20 nM; at TBK1, 9 nM; at hJAK2, greater than 1000 nM.
As to `C[C@H](O)C(=O)N1CC[C@H](Oc2ccc(-c3ncnc(Nc4ccc(N5CCN(C6COC6)CC5)c(C(F)(F)F)c4)n3)cc2C#N)[C@H](F)C1` [Example 370, 2-(((3R,4S)-3-fluoro-1-((S)-2-hydroxypropanoyl)piperidin-4-yl)oxy)-5-(4-((4-(4-(oxetan-3-yl)piperazin-1-yl)-3-(trifluoromethyl)phenyl)amino)-1,3,5-triazin-2-yl)benzonitrile], the IC50 was determined as 8 nM on IKKε, 5 nM at TBK1 and 875 nM at hJAK2.
